# In US20110144029A1, “Model Systems and Materials for the Study and Treatment of Neurodegenerative Diseases” (BOARD OF REGENTS, THE UNIVERSITY OF TEXAS SYSTEM, priority 2009, published 2011):
# How the values were obtained:
# [1] = tested on: cerebellar granule neurons; assay: Live/Dead (Red/Green) viability assay in cultured cerebellar granule neurons; format: cell-based, rat
# Method: Neuronal cultures were switched to serum-free medium T-peptide, K-peptide, Core-peptide, V-peptide. VV-peptide, and T (L)-peptide. All peptides were used at 25 μM concentration. Phase contrast micrographs show appearance of the cultures after 24 h of peptide treatment. The Live/Dead viability assay was also performed. Nuclei of dead cells are stained red whereas cytoplasm of living cells are stained green. In the case of sick and dying cells, green staining is condensed;
# (§1) Cerebellar granule neurons were switched to serum-free medium containing various concentrations of T-peptide, K-peptide, Core-peptide, V-peptide, VV-peptide, and T (L)-peptide. Cell viability was measured using two independent methods 24 h after peptide treatment and results are graphed. * indicates p<0.05 compared with control cells that were treated with HK: (4A) Results from Red/Green viability assay, (4B) Results from MTT assay;
# Culturing and treatment of neurons: Cerebellar granule neurons were cultured from 7-8 day old rats as previously described. The neurons were plated in 24-well with poly-L-lysine coated glass coverslips at a density of ˜1 million cells/well in Basal Eagle's Medium with Earle's salts (BME) supplemented with 10% FCS, 25 mM KCl, 2 mM glutamine and […] gentamicin. To prevent mitosis of glial cells, cytosine arabinofuranoside ([…]) was added to culture 16-20 hrs after plating. Neuronal cultures were treated with peptides 6-7 days after plating. For treatment, the cultures were switched to serum-free medium containing 25 mM KCl (referred to as high potassium or HK medium). Although serum is required for proper maturation, after 5 days in culture, the neurons survive normally in the absence of serum provided depolarizing levels of KCl is added.
# Cell viability quantification: Cell viability was quantified using the Live/Dead assays with a commercially available kit (Invitrogen). This is a two-color fluorescence assay utilizing two cell-permeable compounds, calcein acetoxymethyl (calcein AM) and ethidium homodimer-1 (EthD-1). Live cells have intracellular esterases that convert non-fluorescent calcein AM to the intensely green fluorescent calcein, which is retained within the cytoplasm of cells. Because dead cells have damaged membranes, EthD-1 enters and is fluorescent when bound to nucleic acids. EthD-1 stains the nuclei of damaged or dead cells. As recommended by the manufacturer, cells plated in wells with cover-slips were incubated in Live/Dead reagent (1 uM calcein AM and 4 uM EthD-1) for 30 min, and then mounted on slides. Cell viability was also analyzed using the MTT [3-(4,5-Dimethylthiazol-2-yl)-2,5-diphenyltetrazolium bromide] assay based on the evaluation of mitochondrial function. MTT assays were performed as previously described. Briefly, MTT (5 mg/ml in culture medium) was added to the culture medium and the cells incubated at 37° C. for 1 h. The assay was stopped by adding lysis buffer [20% sodium dodecyl sulfate (SDS) in 50% N,N-dimethylformamide, pH 4.7]. Absorbance was measured spectrophotometrically at 570 nm after an overnight incubation at room temperature.
# [2] = tested on: cerebellar granule neurons; assay: MTT assay in cerebellar granule neurons; format: cell-based, rat; settings: 24 h peptide treatment
# Method: as §1
# Culturing and treatment of neurons: Cerebellar granule neurons were cultured from 7-8 day old rats as previously described. The neurons were plated in 24-well with poly-L-lysine coated glass coverslips at a density of ˜1 million cells/well in Basal Eagle's Medium with Earle's salts (BME) supplemented with 10% FCS, 25 mM KCl, 2 mM glutamine and […] gentamicin. […]
# (§2) Cell viability quantification: Cell viability was quantified using the Live/Dead assays with a commercially available kit (Invitrogen). This is a two-color fluorescence assay utilizing two cell-permeable compounds, calcein acetoxymethyl (calcein AM) and ethidium homodimer-1 (EthD-1). […] Cell viability was also analyzed using the MTT [3-(4,5-Dimethylthiazol-2-yl)-2,5-diphenyltetrazolium bromide] assay based on the evaluation of mitochondrial function. […] Absorbance was measured spectrophotometrically at 570 nm after an overnight incubation at room temperature.
# [3] = tested on: cortical neurons; assay: Live/Dead viability assay in cortical neurons; format: cell-based; settings: 24 h, serum-free medium
# Method: (§3) Primary cultures and cell lines were treated in serum-free medium with T-peptide for 24 hours. Viability was quantified using the Live/Dead assay. * indicates p<0.05 compared with control cells that were treated with serum-free medium without peptide: (6A) Results from the analyses of cerebellar granule neurons, cortical neurons, and kidney fibroblasts cultured from rats, (6B) Results from the HT22 and HEK293 cell lines;
# as §2, with “(EthD-1). Live cells have intracellular esterases that convert non-fluorescent calcein AM to the intensely green fluorescent calcein, which is retained within the cytoplasm of cells. Because dead cells have damaged membranes, EthD-1 enters and is fluorescent when bound to nucleic acids. EthD-1 stains the nuclei of damaged or dead cells.” for “(EthD-1).”
# [4] = tested on: kidney fibroblasts; assay: Live/Dead viability assay in primary kidney fibroblasts; format: cell-based, rat; settings: 24 h, serum-free medium
# Method: as §3
# Cultures of kidney fibroblasts and treatment with peptides: Kidneys were taken for 7-8 day old rats and placed in Dulbecco's Modified Eagle's Medium (DMEM). They were then diced and trypsinized for 8-12 mins. Trypsin was inactivated with trypsin inhibitor and centrifuged at 500 g for 1 min. Pellets were resuspended in DMEM and broken-up with a pasteur pipette 25 times, then centrifuged at 1000 g rpm for 1 min. […]
# as §2
# [5] = tested on: Primary glial cells; assay: T-peptide toxicity in primary glial cells; format: cell-based; settings: data not shown
# [6] = Live/Dead viability assay in HT-22 cell line; format: cell-based; settings: 24 h, serum-free medium
# Method: as §3
# (§4) HT-22 and HEK293 cell culture: HT-22 cells were maintained in DMEM supplemented with 10% FCS, 50 U/ml penicillin and 50 μg/ml streptomycin. HEK293 were maintained in DMEM supplemented with 10% FCS, 50 U/ml penicillin and 50 μg/ml streptomycin. Both cell lines were treated with peptide at 70-80% confluency in serum-free media.
# as §2
# [7] = tested on: human embryonic kidney HEK293T cell line; assay: Live/Dead viability assay in HEK293T cell line; format: cell-based; settings: 24 h, serum-free medium
# Method: as §3, §4, §2
# [8] = tested on: adult rat brains; assay: Stereotaxic injection of peptide into adult rat brain; format: in vivo
# Description: Other aggregating peptides unrelated to tau are not neurotoxic. […] To examine this issue, we synthesized two peptides, STVIIE-R9 (designated at ST peptide), previously described by Pastor et al. (Pastor et al., 2008) and another de novo peptide, SQIVYA-R9. We were able to follow the kinetics of aggregation of both peptides into amyloid forming structures using the fluorescence of thioflavin-S and we characterized their morphology by TEM. […] Peptide induces neurodegeneration in the intact rat brain. […] To examine this issue, […] of T-peptide and K-peptide was sterotaxically injected into adult rat brains. Each animal received 2 injections—on one side into the striatum, and on the other side into the hippocampus. Rats were analyzed 1 week later. […] No damage is seen in the hippocampus however.
smiles,measurement,setting,value
"CC[C@@H](C)[C@@H](NC(=O)[C@@H](CCC(N)=O)NC(=O)[C@H](NC(C)=O)C(C)C)C(=O)N[C@@H](C(=O)N[C@H](Cc1ccc(O)cc1)C(=O)N[C@H](CCCCN)C(=O)N[C@@H](CCCNC(=N)N)C(=O)N[C@@H](CCCNC(=N)N)C(=O)N[C@@H](CCCNC(=N)N)C(=O)N[C@@H](CCCNC(=N)N)C(=O)N[C@@H](CCCNC(=N)N)C(=O)N[C@@H](CCCNC(=N)N)C(=O)N[C@@H](CCCNC(=N)N)C(=O)N[C@@H](CCCNC(=N)N)C(=O)N[C@@H](CCCNC(=N)N)C(N)=O)C(C)C [T-peptide, Ac-vqivyk-R9—NH2]",doses at which significant death is observable,"[1]; 24 h, serum-free HK medium",≥ 5 µM
same,neurotoxicity / effect on neuronal survival,"[1]; 24 h peptide treatment, HK medium",induces cell death in a concentration-dependent manner
same,"MTT assay result (mitochondrial function, words)",[2],confirmed using the MTT assay
same,sensitivity to T-peptide induced toxicity relative to cerebellar granule neurons,[3],slightly less sensitive
same,sensitivity to T-peptide toxicity relative to neuronal cell types,[4],much less sensitive
same,sensitivity to T-peptide toxicity relative to neurons,[5],less sensitive than neurons
same,sensitivity to T-peptide toxicity,[6],moderate level of sensitivity
same,doses up to which the cell line is resistant,[7],up to 50 μM
same,brain damage compared with K-peptide-injected rats,"[8]; 200 mg injected into striatum and hippocampus, analyzed 1 week later",display more damage than K-peptide-injected rats
same,damage in corpus callosum,"[8]; 200 mg injected, 1 week",shows damage and scarring
same,damage in hippocampus,"[8]; 200 mg injected, 1 week",does not seem to show much damage
same,damage in striatum,"[8]; 200 mg injected, 1 week",shows obvious damage
same,lateral ventricle,"[8]; 200 mg injected, 1 week",enlarged
